Results on 21 compounds are retold here after patent publication US9346786B2, “Pyrrolidine compounds” (Hoffmann-La Roche Inc., priority 2009, dated 2016).

Where two headings read alike, the source gives them in different places.

The assay addresses recombinant human NK3 receptor (Homo sapiens (Human), UniProt P29371). Kind of assay: biochemical. Type of assay: binding. The note with it: read-out: Data Ki (hNK-3 receptor affinity). The method, then:
[^3H]SR142801 Competition Binding Assay
hNK3 receptor binding experiment were performed using [^3H]SR142801 (Catalog No. TRK1035, specific activity: 74.0 Ci/mmol, Amersham, GE Healthcare UK limited, Buckinghamshire, UK) and membrane isolated from HEK293 cells transiently expressing recombinant human NK3 receptor. After thawing, the membrane homogenates were centrifuged at 48,000×g for […] at 4° C., the pellets were resuspended in the 50 mM Tris-HCl, 4 mM MnCl2, 1 μM phosphoramidon, 0.1% BSA binding buffer at pH 7.4 to a final assay concentration of 5 μg protein/well. For inhibition experiments, membranes were incubated with [^3H]SR142801 at a concentration equal to KD value of radioligand and 10 concentrations of the inhibitory compound (0.0003-10 μM) (in a total reaction volume of 500 μl) for 75 min at room temperature (RT). At the end of the incubation, membranes were filtered onto unitfilter (96-well white microplate with bonded GF/C filter preincubated 1 h in 0.3% PEI+0.3% BSA, Packard BioScience, Meriden, Conn.) with a Filtermate 196 harvester (Packard BioScience) and washed 4 times with ice-cold 50 mM Tris-HCl, pH 7.4 buffer. Nonspecific binding was measured in the presence of 10 μM SB222200 for both radioligands. The radioactivity on the filter was counted (5 min) on a Packard Top-count microplate scintillation counter with quenching correction after addition of 45 μl of microscint 40 (Canberra Packard S.A., Zürich, Switzerland) and shaking for 1 h. Inhibition curves were fitted according to the Hill equation: y=100/(1+(x/IC50)^nH), where nH=slope factor using Excel-fit 4 software (Microsoft). IC50 values were derived from the inhibition curve and the affinity constant (Ki) values were calculated using the Cheng-Prussoff equation Ki=IC50/(1+[L]/KD) where [L] is the concentration of radioligand and KD is its dissociation constant at the receptor, derived from the saturation isotherm. All experiments were performed in duplicate and the mean±standard error (SEM) of the individual Ki values was calculated.

Where [1] appears, read: [3H]SR142801, membranes of HEK293 cells transiently expressing recombinant human NK3 receptor.

recombinant human NK3 receptor, sequence (P29371 whole entry): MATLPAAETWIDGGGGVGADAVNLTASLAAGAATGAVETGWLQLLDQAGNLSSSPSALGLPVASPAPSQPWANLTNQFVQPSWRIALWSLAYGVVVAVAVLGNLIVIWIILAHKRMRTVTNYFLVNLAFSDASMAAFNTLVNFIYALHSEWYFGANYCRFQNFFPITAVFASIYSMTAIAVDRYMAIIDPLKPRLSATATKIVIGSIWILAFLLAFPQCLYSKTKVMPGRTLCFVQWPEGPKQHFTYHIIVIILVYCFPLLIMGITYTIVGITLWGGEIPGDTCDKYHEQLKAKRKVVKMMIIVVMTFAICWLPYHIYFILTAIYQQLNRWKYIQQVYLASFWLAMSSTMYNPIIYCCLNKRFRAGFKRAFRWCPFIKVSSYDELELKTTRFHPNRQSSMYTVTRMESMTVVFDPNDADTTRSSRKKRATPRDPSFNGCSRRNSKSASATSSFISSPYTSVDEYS

On to `CCN(C(=O)Oc1ccc(F)cc1)[C@@H]1CN(C(=O)C2CCN(c3ccc(C#N)nn3)CC2)C[C@H]1c1ccc(F)c(F)c1` [Example 58, [(3S,4R)-1-[1-(6-Cyano-pyridazin-3-yl)-piperidine-4-carbonyl]-4-(3,4-difluoro-phenyl)-pyrrolidin-3-yl]-ethyl-carbamic acid 4-fluoro-phenyl ester], for which the Ki under setting [1] amounted to 5 nM.
Consider `CCN(C(=O)Oc1ccc(F)cc1)[C@H]1CN(C(=O)C2CCN(c3ccc(C(F)(F)F)cn3)CC2)C[C@@H]1c1ccc(Cl)cc1` [Example 19, [(3R,4S)-4-(4-Chloro-phenyl)-1-(5′-trifluoromethyl-3,4,5,6-tetrahydro-2H-[1,2′]bipyridinyl-4-carbonyl)-pyrrolidin-3-yl]-ethyl-carbamic acid 4-fluoro-phenyl ester], for which the Ki stood at 88 nM.
As to `CCN(C(=O)Oc1ccc(F)cc1)[C@@H]1CN(C(=O)C2CCN(c3ccc(C(N)=O)cn3)CC2)C[C@H]1c1ccc(Cl)c(Cl)c1` [Example 115, [(3S,4R)-1-(5′-Carbamoyl-3,4,5,6-tetrahydro-2H-[1,2′]bipyridinyl-4-carbonyl)-4-(3,4-dichloro-phenyl)-pyrrolidin-3-yl]-ethyl-carbamic acid 4-fluoro-phenyl ester], the Ki under setting [1] was 0.9 nM.
Consider `CC1(C(=O)N2CCC(C(=O)N3C[C@@H](N(C(=O)Oc4ccc(F)cc4)C4CC4)[C@H](c4ccc(Cl)c(Cl)c4)C3)CC2)CC1` (racemic) [Example 4, rac-{(3S,4R)-4-(3,4-Dichloro-phenyl)-1-[1-(1-methyl-cyclopropanecarbonyl)-piperidine-4-carbonyl]-pyrrolidin-3-yl}-cyclopropyl-carbamic acid 4-fluoro-phenyl ester], for which the Ki under setting [1] was 10 nM.
For the compound `CCN(C(=O)Oc1ccc(F)cc1)[C@H]1CN(C(=O)C2CCN(c3cnc(C#N)cn3)CC2)C[C@@H]1c1ccc(Cl)cc1` [Example 11, {(3R,4S)-4-(4-Chloro-phenyl)-1-[1-(5-cyano-pyrazin-2-yl)-piperidine-4-carbonyl]-pyrrolidin-3-yl}-ethyl-carbamic acid 4-fluoro-phenyl ester], the Ki worked out at 36 nM.
As to `CCN(C(=O)Oc1ccc(F)cc1)[C@@H]1CN(C(=O)C2CCN(C(=O)C3(COC)CC3)CC2)C[C@H]1c1ccc(Cl)cc1` [Example 99, {(3S,4R)-4-(4-Chloro-phenyl)-1-[1-(1-methoxymethyl-cyclopropanecarbonyl)-piperidine-4-carbonyl]-pyrrolidin-3-yl}-ethyl-carbamic acid 4-fluoro-phenyl ester], the Ki was 4.7 nM.
`CCN(C(=O)Oc1ccc(F)cc1)[C@@H]1CN(C(=O)C2CCN(C(=O)C3(C)CC3)CC2)C[C@H]1c1ccc(F)c(F)c1` [Example 52, {(3S,4R)-4-(3,4-Difluoro-phenyl)-1-[1-(1-methyl-cyclopropanecarbonyl)-piperidine-4-carbonyl]-pyrrolidin-3-yl}-ethyl-carbamic acid 4-fluoro-phenyl ester]: the Ki under setting [1] came to 15 nM.
Regarding `CCN(C(=O)Oc1ccc(F)cc1)[C@@H]1CN(C(=O)C2CCN(C(=O)C3CCC(=O)NC3)CC2)C[C@H]1c1ccc(F)c(F)c1` (stereo partly drawn) [Example 107, {(3S,4R)-4-(3,4-Difluoro-phenyl)-1-[1-(6-oxo-piperidine-3-carbonyl)-piperidine-4-carbonyl]-pyrrolidin-3-yl}-ethyl-carbamic acid 4-fluoro-phenyl ester], the inhibition constant (Ki) under setting [1] was determined as 131 nM.
As for `CCN(C(=O)Oc1ccc(F)cc1)[C@@H]1CN(C(=O)C2CCN(C(=O)c3ccc(F)cn3)CC2)C[C@H]1c1ccc(Cl)cc1` [Example 102, {(3S,4R)-4-(4-Chloro-phenyl)-1-[1-(5-fluoro-pyridine-2-carbonyl)-piperidine-4-carbonyl]-pyrrolidin-3-yl}-ethyl-carbamic acid 4-fluoro-phenyl ester], the Ki under setting [1] came out at 8.2 nM.
As to `CCN(C(=O)Oc1ccc(F)cc1)[C@@H]1CN(C(=O)C2CCN(C(=O)C3CCOCC3)CC2)C[C@H]1c1ccc(Cl)cc1` [Example 97, {(3S,4R)-4-(4-Chloro-phenyl)-1-[1-(tetrahydro-pyran-4-carbonyl)-piperidine-4-carbonyl]-pyrrolidin-3-yl}-ethyl-carbamic acid 4-fluoro-phenyl ester], the Ki under setting [1] turned out to be 4.4 nM.
Turning to `CCN(C(=O)Oc1ccc(F)cc1)[C@@H]1CN(C(=O)C2CCN(c3cc(C#N)ccn3)CC2)C[C@H]1c1ccc(F)c(F)c1` [Example 53, [(3S,4R)-1-(4′-Cyano-3,4,5,6-tetrahydro-2H-[1,2′]bipyridinyl-4-carbonyl)-4-(3,4-difluoro-phenyl)-pyrrolidin-3-yl]-ethyl-carbamic acid 4-fluoro-phenyl ester], the Ki under setting [1] is 16 nM.
For `CCN(C(=O)Oc1ccc(F)cc1)[C@@H]1CN(C(=O)C2CCN(C(=O)c3ccc(C(F)(F)F)cn3)CC2)C[C@H]1c1ccc(Cl)cc1` [Example 101, {(3S,4R)-4-(4-Chloro-phenyl)-1-[1-(5-trifluoromethyl-pyridine-2-carbonyl)-piperidine-4-carbonyl]-pyrrolidin-3-yl}-ethyl-carbamic acid 4-fluoro-phenyl ester], under setting [1], the Ki came out at 42.5 nM.
In the case of `CCN(C(=O)Oc1ccc(F)cc1)[C@@H]1CN(C(=O)C2CCN(C(=O)c3ccc(F)cc3)CC2)C[C@H]1c1ccc(Cl)c(F)c1` [Example 77, {(3S,4R)-4-(4-Chloro-3-fluoro-phenyl)-1-[1-(4-fluoro-benzoyl)-piperidine-4-carbonyl]-pyrrolidin-3-yl}-ethyl-carbamic acid 4-fluoro-phenyl ester], the Ki came to 4 nM.
Take `CC(C)N(C(=O)Oc1ccc(F)cc1)[C@@H]1CN(C(=O)C2CCN(C(=O)C3(C)CC3)CC2)C[C@H]1c1ccc(Cl)c(Cl)c1` (racemic) [Example 2, rac-{(3S,4R)-4-(3,4-Dichloro-phenyl)-1-[1-(1-methyl-cyclopropanecarbonyl)-piperidine-4-carbonyl]-pyrrolidin-3-yl}-isopropyl-carbamic acid 4-fluoro-phenyl ester]: the Ki under setting [1] was 46 nM.
Take `CCN(C(=O)Oc1ccc(F)cc1)[C@@H]1CN(C(=O)C2CCN(C(=O)c3ccc(C#N)cc3)CC2)C[C@H]1c1ccc(Cl)c(F)c1` [Example 76, {(3S,4R)-4-(4-Chloro-3-fluoro-phenyl)-1-[1-(4-cyano-benzoyl)-piperidine-4-carbonyl]-pyrrolidin-3-yl}-ethyl-carbamic acid 4-fluoro-phenyl ester]: the Ki under setting [1] came out at 17 nM.
In the case of `CC(C)N(C(=O)Oc1ccc(F)cc1)[C@@H]1CN(C(=O)C2CCN(c3ccc(C#N)nn3)CC2)C[C@H]1c1ccc(Cl)cc1` [Example 26, {(3S,4R)-4-(4-Chloro-phenyl)-1-[1-(6-cyano-pyridazin-3-yl)-piperidine-4-carbonyl]-pyrrolidin-3-yl}-isopropyl-carbamic acid 4-fluoro-phenyl ester], the Ki under setting [1] amounted to 46 nM.
Consider `CCN(C(=O)Oc1ccc(F)cc1)[C@@H]1CN(C(=O)C2CCN(S(C)(=O)=O)CC2)C[C@H]1c1ccc(Cl)c(F)c1` [Example 81, [(3S,4R)-4-(4-Chloro-3-fluoro-phenyl)-1-(1-methanesulfonyl-piperidine-4-carbonyl)-pyrrolidin-3-yl]-ethyl-carbamic acid 4-fluoro-phenyl ester], for which, under setting [1], the Ki was 29 nM.
For `CCN(C(=O)Oc1ccc(F)cc1)[C@@H]1CN(C(=O)C2CCN(C(=O)C3(C#N)CC3)CC2)C[C@H]1c1ccc(Cl)c(F)c1` [Example 72, {(3S,4R)-4-(4-Chloro-3-fluoro-phenyl)-1-[1-(1-cyano-cyclopropanecarbonyl)-piperidine-4-carbonyl]-pyrrolidin-3-yl}-ethyl-carbamic acid 4-fluoro-phenyl ester], the Ki was determined as 2 nM.
On to `CCN(CC)CC(=O)c1ccc(N2CCC(C(=O)N3C[C@@H](N(CC)C(=O)Oc4ccc(F)cc4)[C@H](c4ccc(F)cc4)C3)CC2)nc1` [Example 122, [(3S,4R)-1-[5′-(2-Diethylamino-acetyl)-3,4,5,6-tetrahydro-2H-[1,2′]bipyridinyl-4-carbonyl]-4-(4-fluoro-phenyl)-pyrrolidin-3-yl]-ethyl-carbamic acid 4-fluoro-phenyl ester], for which the Ki under setting [1] worked out at 69.6 nM.
On the same count and under the same terms, next, `CCN(C(=O)Oc1ccc(F)cc1)[C@@H]1CN(C(=O)C2CCN(c3ccc(Cl)cn3)CC2)C[C@H]1c1ccc(Cl)cc1` [Example 110, [(3S,4R)-4-(4-Chloro-phenyl)-1-(5′-chloro-3,4,5,6-tetrahydro-2H-[1,2′]bipyridinyl-4-carbonyl)-pyrrolidin-3-yl]-ethyl-carbamic acid 4-fluoro-phenyl ester]: 4.8 nM.
As to `CCN(C(=O)Oc1ccc(F)cc1)[C@@H]1CN(C(=O)C2CCN(c3ccc(F)cn3)CC2)C[C@H]1c1ccc(F)c(F)c1` [Example 54, [(3S,4R)-4-(3,4-Difluoro-phenyl)-1-(5′-fluoro-3,4,5,6-tetrahydro-2H-[1,2′]bipyridinyl-4-carbonyl)-pyrrolidin-3-yl]-ethyl-carbamic acid 4-fluoro-phenyl ester], the Ki under setting [1] is 7 nM.
